Results reported in patent US20250255847A1, “[…]s: Novel Drugs for Triple Negative Breast Cancer” (SIMMARON RSEARCH INC, priority 2024, published 2025).

Molecular target: T1, DNA binding activity of STAT3 (Homo sapiens, UniProt P40763)
T1 construct: endogenous in cells; host or cells: MDA-MB-468 (nuclear extract)
Experiment: Electrophoretic mobility shift assay (EMSA) in nuclear extracts
Assay type: cell-based
Conditions: EGF (20 ng/mL)-stimulated MDA-MB-468 nuclear extract, SIM-1 20 nM (FIG. 9B)
Method: FIG. 9 illustrates an embodiment of the present invention and illustrates promoter recruitment assay of STAT3 in IL6 promoter. (A) MDA-MB-468 cells were treated with 5, 10, and 20 ng/mL doses of EGF for 5 hrs followed by immunoblot (IB) analyses of Y705 phospho and S727 phospho STAT3 in nuclear extracts. Histone 3 ([…]) IB was run as control. (B) EMSA analyses were performed in nuclear extracts of EGF (20 ng/mL)- and EGF+SIM-1 (20 nM)-treated MDA-MB-468 cells against the STAT3-specific oligonucleotide probe (Li-Cor bioscience; Cat #P/N: 829-07922) or SEQ ID NO: 1 and resolved in 6% DNA retardation gel (Invitrogen). (C) Chromatin immunoprecipitation assay was performed in the nuclear extracts of MDA-MB-468 cells treated with EGF or EGF+SIM-1 for 5 hrs. Y705P STAT3 antibody was used for chromatin immunoprecipitation and IgG precipitation was performed as a control.
Electrophoretic Mobility Shift Assay (EMSA). EMSA was performed in […] as described before. […] were treated with 25 ng/mL EGF alone or together with SIM1 (5 nM) for 5 hrs followed by nuclear fractionation with nuclear extraction kit (Abcam). […]

T1 sequence (P40763 2-770 limits assumed): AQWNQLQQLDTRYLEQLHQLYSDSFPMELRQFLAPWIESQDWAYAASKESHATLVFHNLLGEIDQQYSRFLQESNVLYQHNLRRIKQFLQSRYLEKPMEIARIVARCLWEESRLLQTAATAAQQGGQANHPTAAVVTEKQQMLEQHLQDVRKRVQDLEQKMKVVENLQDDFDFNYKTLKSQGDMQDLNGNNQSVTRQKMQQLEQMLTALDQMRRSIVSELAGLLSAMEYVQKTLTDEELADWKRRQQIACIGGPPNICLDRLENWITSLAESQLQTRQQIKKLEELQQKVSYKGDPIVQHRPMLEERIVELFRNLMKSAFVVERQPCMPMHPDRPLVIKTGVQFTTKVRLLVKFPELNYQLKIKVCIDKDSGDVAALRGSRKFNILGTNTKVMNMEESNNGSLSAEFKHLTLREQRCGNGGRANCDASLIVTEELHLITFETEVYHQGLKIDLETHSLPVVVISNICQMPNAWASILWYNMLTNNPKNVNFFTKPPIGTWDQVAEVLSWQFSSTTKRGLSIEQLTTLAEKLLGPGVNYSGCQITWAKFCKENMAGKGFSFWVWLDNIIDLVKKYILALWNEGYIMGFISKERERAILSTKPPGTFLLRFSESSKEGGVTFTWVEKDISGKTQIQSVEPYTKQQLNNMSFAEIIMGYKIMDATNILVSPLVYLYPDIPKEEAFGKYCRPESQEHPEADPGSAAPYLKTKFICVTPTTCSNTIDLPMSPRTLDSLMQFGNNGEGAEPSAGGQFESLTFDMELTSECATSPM

O=C(O)CCC(=O)NCc1csc2ccc(Cl)cc12 [SIM-1, 4-[(5-chloro-1-benzothiophen-3-yl)methylamino]-4-oxobutanoic acid]
DNA binding activity of STAT3: markedly inhibited
